Counter-ions that a name gives are not always drawn.
Each compound was assayed against MCH receptor (Homo sapiens, UniProt Q99705) (assay: High throughput functional screening FLIPR/FDSS6000 (intracellular Ca2+ evoked by MCH)). Conditions: FLIPR/FDSS, antagonist activity vs 50 nM MCH; class by percent of control at 10^−7 M or IC50; read-out: class.
Type: cell-based
In short: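 For antagonist testing, compound-treated cells (30 min, 37 °C) were stimulated with 50 nM MCH and intracellular Ca2+ followed by Fluo4 fluorescence on FLIPR/FDSS6000. Receptor was a constitutively active, non-endogenous MCH receptor; dye loading 4 μM Fluo4-AM, 1 h, 37 °C.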

IC50 [nM]	SMILES
50 to 200	Cc1cnc(N[C@H]2CC[C@@H](NCC(=O)c3ccc(Cl)cc3)CC2)nc1N(C)C [Example 3260, 1-(4-chlorophenyl)-2-[(cis-4-{[4-(dimethylamino)-5-methylpyrimidin-2-yl]amino}cyclohexyl)amino]ethanone]
> 200	Cc1cnc(N[C@H]2CC[C@@H](NCC(=O)c3ccc(F)c(F)c3)CC2)nc1N(C)C [Example 3261, 1-(3,4-difluorophenyl)-2-[(cis-4-{[4-(dimethylamino)-5-methylpyrimidin-2-yl]amino}cyclohexyl)amino]ethanone]
> 200	Cc1cnc(N[C@H]2CC[C@@H](NCC(=O)c3ccc(Br)cc3)CC2)nc1N(C)C [Example 3262, 1-(4-bromophenyl)-2-[(cis-4-{[4-(dimethylamino)-5-methylpyrimidin-2-yl]amino}cyclohexyl)amino]ethanone]
50 to 200	Cc1cc(N(C)C)nc(N[C@H]2CC[C@@H](NC(=O)NC(C)(C)c3cc(C(F)(F)F)cc(C(F)(F)F)c3)CC2)n1 [Example 3263, N-{1-[3,5-bis(trifluoromethyl)phenyl]-1-methylethyl}-N′-(cis-4-{[4-(dimethylamino)-6-methylpyrimidin-2-yl]amino}-cyclohexyl)urea]
< 50	Cc1cnc(N[C@H]2CC[C@@H](NC(=O)NC(C)(C)c3ccc(Cl)cc3)CC2)nc1N(C)C [Example 3264, N-[1-(4-chlorophenyl)-1-methylethyl]-N′-(cis-4-{[4-(dimethylamino)-5-methylpyrimidin-2-yl]amino}cyclohexyl)urea]
50 to 200	Cc1cc(N(C)C)nc(N[C@H]2CC[C@@H](NC(=O)NC(C)(C)c3ccc(Cl)cc3)CC2)n1 [Example 3265, N-[1-(4-chlorophenyl)-1-methylethyl]-N′-(cis-4-{[4-(dimethylamino)-6-methylpyrimidin-2-yl]amino}cyclohexyl)urea]
< 50	Cc1cnc(N[C@H]2CC[C@@H](NC(=O)NC3(c4ccc(Cl)cc4)CC3)CC2)nc1N(C)C [Example 3266, N-[1-(4-chlorophenyl)cyclopropyl]-N′-(cis-4-{[4-(dimethylamino)-5-methylpyrimidin-2-yl]amino}cyclohexyl)urea]
< 50	Cc1cc(N(C)C)nc(N[C@H]2CC[C@@H](NC(=O)NC3(c4ccc(Cl)cc4)CC3)CC2)n1 [Example 3267, N-[1-(4-chlorophenyl)cyclopropyl]-N′-(cis-4-{[4-(dimethylamino)-6-methylpyrimidin-2-yl]amino}cyclohexyl)urea]
> 200	Cc1cc(N(C)C)nc(N[C@H]2CC[C@@H](NC(=O)N(C)C(C)(C)c3cc(C(F)(F)F)cc(C(F)(F)F)c3)CC2)n1 [Example 3268, N-{1-[3,5-bis(trifluoromethyl)phenyl]-1-methylethyl}-N′-(cis-4-{[4-(dimethylamino)-6-methylpyrimidin-2-yl]amino}cyclohexyl)-N-methylurea]
< 50	Cc1cnc(N[C@H]2CC[C@@H](NC(=O)N(C)C(C)(C)c3ccc(Cl)cc3)CC2)nc1N(C)C [Example 3269, N-[1-(4-chlorophenyl)-1-methylethyl]-N′-(cis-4-{[4-(dimethylamino)-5-methylpyrimidin-2-yl]amino}cyclohexyl)-N-methylurea]
50 to 200	Cc1cc(N(C)C)nc(N[C@H]2CC[C@@H](NC(=O)N(C)C(C)(C)c3ccc(Cl)cc3)CC2)n1 [Example 3270, N-[1-(4-chiorophenyl)-1-methylethyl]-N′-(cis-4-{[4-(dimethylamino)-6-methylpyrimidin-2-yl]amino}cyclohexyl)-N-methylurea]
50 to 200	Cc1cnc(N[C@H]2CC[C@@H](NC(=O)N(C)C3(c4ccc(Cl)cc4)CC3)CC2)nc1N(C)C [Example 3271, N-[1-(4-chlorophenyl)cyclopropyl]-N′-(cis-4-{[4-(dimethylamino)-5-methylpyrimidin-2-yl]amino}cyclohexyl)-N-methylurea]
> 200	Cc1cc(N(C)C)nc(N[C@H]2CC[C@@H](NC(=O)N(C)C3(c4ccc(Cl)cc4)CC3)CC2)n1 [Example 3272, N-[1-(4-chlorophenyl)cyclopropyl]-N′-(cis-4-{[4-(dimethylamino)-6-methylpyrimidin-2-yl]amino}cyclohexyl)-N-methylurea]
50 to 200	Cc1cnc(N[C@H]2CC[C@@H](C(=O)NC(C)(C)c3ccc(Cl)cc3)CC2)nc1N(C)C [Example 3273, cis-N-[1-(4-chlorophenyl)-1-methylethyl]-4-{[4-(dimethylamino)-5-methylpyrimidin-2-yl]amino}cyclohexanecarboxamide]
> 200	Cc1cc(N(C)C)nc(N[C@H]2CC[C@@H](C(=O)NC(C)(C)c3ccc(Cl)cc3)CC2)n1 [Example 3274, cis-N-[1-(4-chlorophenyl)-1-methylethyl]-4-{[4-(dimethylamino)-6-methylpyrimidin-2-yl]amino}cyclohexanecarboxamide]
> 200	Cc1cc(N(C)C)nc(N[C@H]2CC[C@@H](C(=O)NC(C)(C)c3cc(C(F)(F)F)cc(C(F)(F)F)c3)CC2)n1 [Example 3275, cis-N-{1-[3,5-bis(trifluoromethyl)phenyl]-1-methylethyl}-4-{[4-(dimethylamino)-6-methylpyrimidin-2-yl]amino}cyclohexanecarboxamide]
> 200	COc1nc(N[C@H]2CC[C@@H](NC(=O)c3ccc(Cl)cc3)CC2)ncc1C [Example 3276, 4-chloro-N-{cis-4-[(4-methoxy-5-methylpyrimidin-2-yl)amino]cyclohexyl}benzamide]
> 200	COc1nc(N[C@H]2CC[C@@H](NC(=O)c3ccc(OC(F)(F)F)cc3)CC2)ncc1C [Example 3277, N-{cis-4-[(4-methoxy-5-methylpyrimidin-2-yl)amino]cyclohexyl}-4-(trifluoromethoxy)benzamide]
50 to 200	COc1nc(N[C@H]2CC[C@@H](NC(=O)c3ccc(Cl)c(Cl)c3)CC2)ncc1C [Example 3278, 3,4-dichloro-N-{cis-4-[(4-methoxy-5-methylpyrimidin-2-yl)amino]cyclohexyl}benzamide]

Same assay, conditions: FLIPR/FDSS, antagonist activity vs 50 nM MCH; class by percent of control at 10^−7 M or IC50; table after the classification; read-out: class

IC50 [nM]	SMILES
< 50	Cc1cnc(N[C@H]2CC[C@@H](NC(=O)c3ccc(F)c(Cl)c3)CC2)nc1N(C)C [Example 3228, 3-Chloro-N-[cis-4-(4-dimethylamino-5-methyl-pyrimidin-2-ylamino)-cyclohexyl]-4-fluoro-benzamide hydrochloride]
< 50	CN(C)c1nc(N[C@H]2CC[C@@H](NC(=O)c3ccc(F)c(Cl)c3)CC2)ncc1F [Example 3229, 3-Chloro-N-[cis-4-(4-dimethylamino-5-fluoro-pyrimidin-2-ylamino)-cyclohexyl]-4-fluoro-benzamide hydrochloride]
< 50	Cc1cc(N(C)C)nc(N[C@H]2CC[C@@H](NC(=O)c3ccc(F)c(Cl)c3)CC2)n1 [Example 3230, 3-Chloro-N-[cis-4-(4-dimethylamino-6-methyl-pyrimidin-2-ylamino)-cyclohexyl]-4-fluoro-benzamide hydrochloride]
50 to 200	CCc1cc(N(C)C)nc(N[C@H]2CC[C@@H](NC(=O)c3ccc(F)c(F)c3)CC2)n1 [Example 3231, N-[cis-4-(4-Dimethylamino-6-ethyl-pyrimidin-2-ylamino)-cyclohexyl]-3,4-difluoro-benzamide hydrochloride]
50 to 200	CN(C)c1cc(N(C)C)nc(N[C@H]2CC[C@@H](NC(=O)c3ccc(F)c(F)c3)CC2)n1 [Example 3232, N-[cis-4-(4,6-Bis-dimethylamino-pyrimidin-2-ylamino)-cyclohexyl]-3,4-difluoro-benzamide hydrochloride]
> 200	CN(C)c1cc(Cl)nc(N[C@H]2CC[C@@H](NC(=O)c3cccnc3Oc3ccccc3)CC2)n1 [Example 3233, N-[cis-4-(6-Chloro-4-dimethylamino-pyrimidin-2-ylamino)-cyclohexyl]-2-phenoxy-nicotinamide hydrochloride]
> 200	CN(C)c1cc(Cl)nc(N[C@H]2CC[C@@H](NC(=O)c3ccc(F)c(F)c3)CC2)n1 [Example 3234, N-[cis-4-(6-Chloro-4-dimethylamino-pyrimidin-2-ylamino)-cyclohexyl]-3,4-difluoro-benzamide hydrochloride]
< 50	Nc1cc(N[C@H]2CC[C@@H](NC(=O)c3ccc(F)c(F)c3)CC2)nc2ccccc12 [Example 3235, N-[cis-4-(4-Amino-quinolin-2-ylamino)-cyclohexyl]-3,4-difluoro-benzamide hydrochloride]
> 200	NC(=O)c1cc(N[C@H]2CC[C@@H](NC(=O)c3ccc(F)c(F)c3)CC2)nc2ccccc12 [Example 3236, 2-(cis-4-{[1-(3,4-Difluoro-phenyl)-methanoyl]-amino}-cyclohexylamino)-quinoline-4-carboxylic acid amide]
> 200	O=C(N[C@H]1CC[C@@H](Nc2cc(C(F)(F)F)c3ccccc3n2)CC1)c1ccc(F)c(F)c1 [Example 3237, 3,4-Difluoro-N-[cis-4-(4-trifluoromethyl-quinolin-2-yl)-amino-cyclohexyl]-benzamide hydrochloride]
< 50	Cc1cc(N[C@H]2CC[C@@H](NC(=O)c3ccc(F)c(F)c3)CC2)nc2ccccc12 [Example 3238, 3,4-Difluoro-N-[cis-4-(4-methyl-quinolin-2-ylamino)-cyclohexyl]-benzamide methanesulfonic acid]
< 50	Cc1cc(N[C@H]2CC[C@@H](NC(=O)c3ccc(F)c(Cl)c3)CC2)nc2ccccc12 [Example 3239, 3-Chloro-4-fluoro-N-[cis-4-(4-methyl-quinolin-2-ylamino)-cyclohexyl]-benzamide methanesulfonic acid]
< 50	COc1cccc(C(=O)N[C@H]2CC[C@@H](Nc3ccc4ccccc4n3)CC2)c1 [Example 3240, 3-Methoxy-N-[cis-4-(quinolin-2-ylamino)-cyclohexyl]-benzamide methanesulfonic acid]
